Data published in publication PMC11855827, “High-Throughput Screening of Five Compound Libraries for Anthelmintic Activity and Toxicity Leads to the Discovery of Two Flavonoid Compounds” (International Journal of Molecular Sciences, 2025).
Where two headings read alike, the source gives them in different places.

Tested on: C. elegans
Experiment: microbe, parasite or virus in culture
Details: Caenorhabditis elegans
[1] = 0 h, read-out: Percentage of motility inhibition 0 h, Table S2, C. elegans SS assay, 110 μM, 0 h, averages of 4 data points
[2] = 24 h, read-out: Percentage of motility inhibition 24 h, Table S2, C. elegans SS assay, 110 μM, 24 h, averages of 4 data points

Structure (SMILES)	inhibition at 110 µM [1]	inhibition at 110 µM [2]	also measured
C[C@@H](O)[C@H]1C(=O)N2C(C(=O)O)=C(SC3CN(C4=NCCS4)C3)[C@H](C)[C@H]12 [Tebipenem]	0%	7%	–
CC(C)(C)C(O)(CCc1ccc(Cl)cc1)Cn1cncn1 (stereo not shown) [Tebuconazole]	32%	1%	–
COc1c(O[C@@H]2O[C@H](CO)[C@@H](O)[C@H](O)[C@H]2O)cc2occ(-c3ccc(O)cc3)c(=O)c2c1O [Tectoridin]	1%	11%	–
COc1c(O)cc2occ(-c3ccc(O)cc3)c(=O)c2c1O [Tectorigenin]	–	–	inhibition at 110 µM (0 h, read-out: Percentage of motility inhibition 0 h): 0%; inhibition at 110 µM (24 h, read-out: Percentage of motility inhibition 24 h): 0%
Cn1nnc(-c2ccc(-c3ccc(N4C[C@H](CO)OC4=O)cc3F)cn2)n1 [Tedizolid]	20%	12%	–
Fc1ccccc1-c1nc2ccn(Cc3ccc(-c4ccc(C(F)(F)F)cc4C(F)(F)F)nn3)cc-2n1 [Tegobuvir]	68%	34%	–
CCC[C@H](NC(=O)[C@@H]1[C@H]2CCC[C@H]2CN1C(=O)[C@@H](NC(=O)[C@@H](NC(=O)c1cnccn1)C1CCCCC1)C(C)(C)C)C(=O)C(=O)NC1CC1 [Telaprevir]	7%	0%	–
Cc1cn([C@@H]2C[C@@H](O)[C@H](CO)O2)c(=O)[nH]c1=O [Telbivudine]	39%	1%	–
C[C@H](Cn1cnc2c(N)ncnc21)OCP(=O)(O)O [Tenofovir]	22%	16%	–
COc1ccc2c(c1)CC=C(CO)c1cc3c(cc1-2)OCO3 [Tenuifolin]	0%	1%	–
CN(C/C=C/C#CC(C)(C)C)Cc1cccc2ccccc12 [Terbinafine]	31%	0%	–
CC(C)(C)NCC(O)c1cc(O)cc(O)c1 (stereo not shown) [Terbutaline]	9%	2%	–
CC(C)N1CCN(c2ccc(OCC3COC(Cn4cncn4)(c4ccc(Cl)cc4Cl)O3)cc2)CC1 (stereo not shown) [Terconazole]	26%	3%	–
CC1(C)CC[C@]2(C(=O)O)CC[C@]3(C)C(=CC[C@@H]4[C@@]5(C)C[C@@H](O)[C@H](O)[C@@](C)(CO)[C@@H]5[C@H](O)C[C@]43C)[C@@H]2C1 [Terminolic acid]	26%	10%	–
CN(C)[C@@H]1C(O)=C(C(N)=O)C(=O)[C@@]2(O)C(O)=C3C(=O)c4c(O)cccc4[C@@](C)(O)[C@H]3C[C@@H]12 [Tetracycline]	39%	46%	–
COc1ccc2c(c1OC)CN1CCc3cc4c(cc3C1C2)OCO4 (stereo not shown) [Tetrahydroberberine]	2%	0%	–
C[C@H](O)[C@H](O)[C@H]1CNc2nc(N)[nH]c(=O)c2N1 [Tetrahydrobiopterin]	0%	3%	–
O=C(CCCCc1ccc2c(c1)OCO2)N1CCCCC1 [Tetrahydropiperine]	0%	0%	–
c1ccc(C2CN3CCSC3=N2)cc1 (stereo not shown) [Tetramisole, reference compound]	–	–	inhibition at 110 µM (0 h, read-out: Inhibition (%) 110 μM (0 h), C. elegans L4 motility, 110 μM, 0 h, mean ± SD of four experiments): 78 ± 2%; inhibition at 110 µM (24 h, read-out: Inhibition (%) 110 μM (24 h), C. elegans L4 motility, 110 μM, 24 h, mean ± SD of four experiments): 82 ± 3%
O=c1c(O)cc([C@H]2Oc3cc(O)cc(O)c3C[C@H]2O)cc2c([C@H]3Oc4cc(O)cc(O)c4C[C@H]3O)cc(O)c(O)c12 [Theaflavin]	11%	5%	–
Cc1ncc(C[n+]2csc(CCO)c2C)c(N)n1 [Thiamine monochloride]	13%	6%	–
CS(=O)(=O)c1ccc([C@@H](O)[C@@H](CO)NC(=O)C(Cl)Cl)cc1 [Thiamphenicol]	24%	1%	–
Cc1nc(C(F)(F)F)c(C(=O)Nc2c(Br)cc(OC(F)(F)F)cc2Br)s1 [Thifluzamide]	69%	29%	–
